# Values of other authors as cited in US20110311589A1 (priority 2008, published 2011).
# Test system: helminthiasis
# Conditions: in vivo
compound,measurement,value
c1ccc([C@H]2CN3CCSC3=N2)cc1 [Levamisole],Dosage level at which particularly effective as anthelmintic,approximately 7.5 mg per kg of animal body weight
